Data from the supplement of paper PMC13380429.

Assays:
Conditions in all cases: 72 h
[1] = test system: U2OS; experiment: cell viability relative to DMSO; higher = less toxic
[2] = test system: Calu-3; experiment: as above
[3] = test system: Vero E6; experiment: as above
[4] = test system: Caco-2; experiment: as above
[5] = test system: HepG2; experiment: as above
[6] = test system: U2OS; experiment: drug sensitivity score (DSS) for viability; higher = more toxic; extreme values may be limits of the assay
[7] = test system: Calu-3; experiment: as above
[8] = test system: Vero E6; experiment: as above
[9] = test system: Caco-2; experiment: as above
[10] = test system: HepG2; experiment: as above
[11] = test system: U2OS; experiment: relative viability EC50 (midpoint between 100% and the lowest measured viability); higher = less toxic
[12] = test system: Calu-3; experiment: as above
[13] = test system: Vero E6; experiment: as above
[14] = test system: Caco-2; experiment: as above
[15] = test system: HepG2; experiment: as above

Row | SMILES | cell viability ([1]; 1 nM) | cell viability ([1]; 10 nM) | cell viability ([1]; 100 nM) | cell viability ([1]; 1000 nM) | cell viability ([1]; 10000 nM) | cell viability ([2]; 1 nM) | cell viability ([2]; 10 nM) | cell viability ([2]; 100 nM) | cell viability ([2]; 1000 nM) | cell viability ([2]; 10000 nM) | cell viability ([3]; 1 nM) | cell viability ([3]; 10 nM) | cell viability ([3]; 100 nM) | cell viability ([3]; 1000 nM) | cell viability ([3]; 10000 nM) | cell viability ([4]; 1 nM) | cell viability ([4]; 10 nM) | cell viability ([4]; 100 nM) | cell viability ([4]; 1000 nM) | cell viability ([4]; 10000 nM) | cell viability ([5]; 1 nM) | cell viability ([5]; 10 nM) | cell viability ([5]; 100 nM) | cell viability ([5]; 1000 nM) | cell viability ([5]; 10000 nM) | drug sensitivity score [6] | drug sensitivity score [7] | drug sensitivity score [8] | drug sensitivity score [9] | drug sensitivity score [10] | relative viability EC50 [11] | relative viability EC50 [12] | relative viability EC50 [13] | relative viability EC50 [14] | relative viability EC50 [15]
1 | Cc1cnc(Nc2ccc(OCCN3CCCC3)cc2)nc1Nc1cccc(S(=O)(=O)NC(C)(C)C)c1 [fedratinib] | 104% | 97.4% | 99.2% | 86.2% | 0.8% | 107% | 102% | 100% | 98.5% | 18.3% | 96% | 104% | 104% | 94.2% | 0.3% | 101% | 97.1% | 99.3% | 79.6% | 11.9% | 120% | 100% | 101% | 74.2% | 22.2% | 7.8 | 4.7 | 6.4 | 8.1 | 8 | 2.05 µM | 3.04 µM | 2.71 µM | 1.61 µM | 1.32 µM
2 | CC1(C)O[C@@H]2C[C@H]3[C@@H]4C[C@H](F)C5=CC(=O)C=C[C@]5(C)[C@H]4[C@@H](O)C[C@]3(C)[C@]2(C(=O)CO)O1 [flunisolide] | 102% | 93.9% | 91.4% | 93.8% | 94.7% | 98.5% | 96.1% | 101% | 94.5% | 88.5% | 96.6% | 97.6% | 95.3% | 94.2% | 102% | 105% | 103% | 91.5% | 87.7% | 98.5% | 105% | 104% | 97.3% | 97.3% | 99.2% | 0 | 0.2 | 0 | 1 | 0 | > 10 µM | > 10 µM | > 10 µM | > 10 µM | > 10 µM
3 | c1ccc(OCc2ccc(CCCN3CCOCC3)cc2)cc1 [fomocaine] | 93.7% | 94.6% | 98.5% | 100% | 101% | 110% | 101% | 108% | 96.3% | 113% | 94.9% | 95.7% | 93.1% | 100% | 100% | 87.8% | 92.8% | 100% | 93.4% | 97.1% | 96.7% | 106% | 97.1% | 101% | 90.4% | 0 | 0 | 0 | 0 | 0 | > 10 µM | > 10 µM | > 10 µM | > 10 µM | > 10 µM
